Laboratory results published in article PMC10743905, “Design, Synthesis, and In Vitro and In Vivo Bioactivity Studies of Hydrazide–Hydrazones of 2,4-Dihydroxybenzoic Acid” (International Journal of Molecular Sciences, 2023).
In brackets after ≈: the same amount, converted by molar mass.

Assays:
[1] = system: Salmonella typhimurium ATCC 14028; assay: Broth microdilution MIC/MBC; format: cell-based
Excerpt: (§1) In vitro antimicrobial activity assays - Methodology
(§2) The examined compounds 1 - 24 were screened in vitro for antibacterial and antifungal activities using the broth microdilution method according to procedure reported earlier by our research group and European Committee on Antimicrobial Susceptibility Testing (EUCAST) and Clinical and Laboratory Standards Institute (CLSI) guidelines against a panel of reference and clinical or saprophytic strains of microorganisms, in-cluding Gram-positive bacteria, Staphylococcus aureus ATCC 43300 (Methicillin Resistant S. aureus – MRSA), Staphylococcus aureus ATCC 29213 (Methicillin Susceptible S. aureus – MSSA), Staphylococcus epidermidis ATCC 12228, Enterococcus faecalis ATCC 29212, Micro-coccus luteus ATCC 10240, Bacillus subtilis ATCC 6633 and Bacillus cereus ATCC 10876), Gram-negative bacteria (Bordetella bronchiseptica ATCC 4617, Escherichia coli ATCC 25922, Klebsiella pneumoniae ATCC 13883, Proteus mirabilis ATCC 12453, Salmonella typhimurium ATCC 14028 and Pseudomonas aeruginosa ATCC 9027) and fungi belonging to yeasts (Can-dida albicans ATCC 10231, Candida albicans ATCC 2091, Candida parapsilosis ATCC 22019, Candida glabrata ATCC 90030 and Candida krusei ATCC 14243). The microorganisms be-longing to ATCC came from American Type Culture Collection, routinely used for the evaluation of antimicrobials. […]
(§3) Samples containing examined compounds were dissolved in dimethyl sulfoxide (DMSO). […]
(§4) Subsequently, the MIC (Minimal Inhibitory Concentration) of the compounds was ex-amined by the microdilution broth method, using their two-fold dilutions in Mueller- […]
(§5) Hinton broth or (for bacteria) and RPMI 1640 broth with MOPS (for fungi) prepared in 96-well polystyrene plates. Final concentrations of the compounds ranged from 1000 to 0.488 µg/ml. Microbial suspensions were prepared in 0.85% NaCl with an optical density of 0.5 McFarland standard. Next each bacterial or fungal suspension was added per each well containing broth and various concentrations of the examined compounds. After incuba-

[2] = system: Micrococcus luteus ATCC 10240; assay: Broth microdilution MIC/MBC; format: cell-based; details: for MBC: ATCC10240; for MIC: ATCC10240, read-out: MIC
Excerpt: as §1, §2, §3, §4, §5

[3] = system: Proteus mirabilis ATCC 12453; assay: Broth microdilution MIC/MBC; format: cell-based; details: ATCC12453
Excerpt: as §1, §2, §3, §4, §5

[4] = system: Pseudomonas aeruginosa ATCC 9027; assay: Broth microdilution MIC/MBC; format: cell-based; details: ATCC9027
Excerpt: as §1, §2, §3, §4, §5

[5] = system: Staphylococcus aureus ATCC 29213; assay: Broth microdilution MIC/MBC; format: cell-based; details: for MBC / MIC: ATCC29213
Excerpt: as §1, §2, §3, §4, §5

[6] = system: Staphylococcus aureus ATCC 43300; assay: Broth microdilution MIC/MBC; format: cell-based; details: Staphylococcus aureus ATCC 43300 (MRSA)
Excerpt: as §1, §2, §3, §4, §5

[7] = system: Staphylococcus epidermidis ATCC 12228; assay: Broth microdilution MIC/MBC; format: cell-based; details: for MIC: ATCC12228, read-out: MIC
Excerpt: as §1, §2, §3, §4, §5

[8] = system: Bacillus subtilis ATCC 6633; assay: Broth microdilution MIC/MBC; format: cell-based; details: for MIC: ATCC6633, read-out: MIC
Excerpt: Detailed procedures are presented in the Supplementary Materials. […]
as §1
as §2, with “antimicrobials. All the used microbial cultures were first subcultured on nu-trient agar or Sabouraud agar at 35°C for 18-24 h or 30°C for 24-48 h for bacteria and fungi,” for “antimicrobials.”
(§6) The surface of Mueller-Hinton agar (for bacteria) and RPMI 1640 with MOPS (for fungi) were inoculated with the suspensions of bacterial or fungal species. Microbial suspensions were prepared in sterile saline with an optical density of McFarland standard scale 0.5.
(§7) Samples containing examined compounds were dissolved in dimethyl sulfoxide (DMSO).
(§8) Furthermore, bacterial and fungal suspensions were put onto Petri dishes with solid me-dia containing 2 mg/mL of the tested compounds followed incubation at 37°C for 24h and 30°C for 48h for bacteria and fungi, respectively. The inhibition of microbial growth was judged by comparison with a control culture prepared without any sample tested. Ciprof-loxacin, vancomycin, nitrofurantoin, cefuroxime, ampicillin or nystatin (Sigma) were used as a reference antibacterial or antifungal compounds, respectively.
as §4, §5

[9] = system: Bacillus cereus ATCC 10876; assay: Broth microdilution MIC/MBC; format: cell-based; details: for MIC: ATCC10876, read-out: MIC
Excerpt: as §1
as §2, with “antimicrobials. All the used microbial cultures were first subcultured on nu-trient agar or Sabouraud agar at 35°C for 18-24 h or 30°C for 24-48 h for bacteria and fungi,” for “antimicrobials.”
as §6, §7, §8, §4, §5

[10] = system: Bordetella bronchiseptica ATCC 4617; assay: Broth microdilution MIC/MBC; format: cell-based; details: ATCC4617
Excerpt: as §1
as §2, with “antimicrobials. All the used microbial cultures were first subcultured on nu-trient agar or Sabouraud agar at 35°C for 18-24 h or 30°C for 24-48 h for bacteria and fungi,” for “antimicrobials.”
as §6, §7, §8, §4, §5

[11] = system: Enterococcus faecalis ATCC 29212; assay: Broth microdilution MIC/MBC; format: cell-based; details: for MIC: ATCC29212, read-out: MIC
Excerpt: as §1
as §2, with “antimicrobials. All the used microbial cultures were first subcultured on nu-trient agar or Sabouraud agar at 35°C for 18-24 h or 30°C for 24-48 h for bacteria and fungi,” for “antimicrobials.”
as §6, §7, §8, §4, §5

[12] = system: Escherichia coli ATCC 25922; assay: Broth microdilution MIC/MBC; format: cell-based; details: ATCC25922
Excerpt: as §1
as §2, with “antimicrobials. All the used microbial cultures were first subcultured on nu-trient agar or Sabouraud agar at 35°C for 18-24 h or 30°C for 24-48 h for bacteria and fungi,” for “antimicrobials.”
as §6, §7, §8, §4, §5

[13] = system: Klebsiella pneumoniae ATCC 13883; assay: Broth microdilution MIC/MBC; format: cell-based; details: ATCC13883
Excerpt: as §1
as §2, with “antimicrobials. All the used microbial cultures were first subcultured on nu-trient agar or Sabouraud agar at 35°C for 18-24 h or 30°C for 24-48 h for bacteria and fungi,” for “antimicrobials.”
as §6, §7, §8, §4, §5

[14] = system: Candida albicans ATCC 10231; assay: Broth microdilution MIC/MFC; format: cell-based; details: for MIC: ATCC10231, read-out: MIC
Excerpt: as §1
as §2, with “antimicrobials. All the used microbial cultures were first subcultured on nu-trient agar or Sabouraud agar at 35°C for 18-24 h or 30°C for 24-48 h for bacteria and fungi,” for “antimicrobials.”
as §6, §7, §8, §4, §5

[15] = system: Candida albicans ATCC 2091; assay: Broth microdilution MIC/MFC; format: cell-based; details: for MIC: ATCC2091, read-out: MIC
Excerpt: as §1
as §2, with “antimicrobials. All the used microbial cultures were first subcultured on nu-trient agar or Sabouraud agar at 35°C for 18-24 h or 30°C for 24-48 h for bacteria and fungi,” for “antimicrobials.”
as §6, §7, §8, §4, §5

[16] = system: Candida glabrata ATCC 90030; assay: Broth microdilution MIC/MFC; format: cell-based; details: Nakaseomyces glabratus, ATCC90030, read-out: MIC
Excerpt: as §1
as §2, with “antimicrobials. All the used microbial cultures were first subcultured on nu-trient agar or Sabouraud agar at 35°C for 18-24 h or 30°C for 24-48 h for bacteria and fungi,” for “antimicrobials.”
as §6, §7, §8, §4, §5

[17] = system: Candida krusei ATCC 14243; assay: Broth microdilution MIC/MFC; format: cell-based; details: Pichia kudriavzevii, ATCC14243, read-out: MIC
Excerpt: as §1
as §2, with “antimicrobials. All the used microbial cultures were first subcultured on nu-trient agar or Sabouraud agar at 35°C for 18-24 h or 30°C for 24-48 h for bacteria and fungi,” for “antimicrobials.”
as §6, §7, §8, §4, §5

[18] = system: Candida parapsilosis ATCC 22019; assay: Broth microdilution MIC/MFC; format: cell-based; details: Lodderomyces parapsilosis, ATCC22019, read-out: MIC
Excerpt: as §1
as §2, with “antimicrobials. All the used microbial cultures were first subcultured on nu-trient agar or Sabouraud agar at 35°C for 18-24 h or 30°C for 24-48 h for bacteria and fungi,” for “antimicrobials.”
as §6, §7, §8, §4, §5

O=C(O)c1cn(C2CC2)c2cc(N3CCNCC3)c(F)cc2c1=O [CIP, ciprofloxacin, reference compound]
MBC/MIC [1]: 1
MBC ([1]; Salmonella enterica): 0.06 mg/L (≈ 0.000181 mM)
MIC ([1]; Salmonella enterica): 0.06 mg/L (≈ 0.000181 mM)

Cc1ccccc1/C=N/NC(=O)c1ccc(O)cc1O [Compound 1, 2,4-dihydroxy-N-[(2-methylphenyl)methylidene]benzohydrazide]
MBC/MIC [2]: > 2
MBC [2]: > 1000 mg/L
MIC [2]: 500 mg/L (≈ 1.85 mM)
MIC [3]: > 1000 mg/L
MIC [4]: > 1000 mg/L
MIC ([1]; Salmonella enterica): > 1000 mg/L
MBC/MIC [5]: > 1
MBC [5]: > 1000 mg/L
MIC [5]: 1000 mg/L (≈ 3.7 mM)
MBC [6]: > 1000 mg/L
MBC/MIC [6]: > 1
MIC [6]: 1000 mg/L (≈ 3.7 mM)
MIC [7]: > 1000 mg/L
MBC/MIC [8]: > 2
MBC ([8]; ATCC6633): > 1000 mg/L
MIC [8]: 500 mg/L (≈ 1.85 mM)
MIC [9]: > 1000 mg/L
MIC [10]: > 1000 mg/L
MBC/MIC [11]: > 1
MBC ([11]; ATCC29212, read-out: MBC): > 1000 mg/L
MIC [11]: 1000 mg/L (≈ 3.7 mM)
MIC [12]: > 1000 mg/L
MIC [13]: > 1000 mg/L
MIC [14]: > 1000 mg/L
MIC [15]: > 1000 mg/L
MIC [16]: > 1000 mg/L
MIC [17]: > 1000 mg/L
MIC [18]: > 1000 mg/L
melting point: 250 °C

CCCCOc1ccc(/C=N/NC(=O)c2ccc(O)cc2O)cc1 [Compound 7, N-[(4-butoxyphenyl)methylidene]-2,4-dihydroxybenzohydrazide]
MBC/MIC [2]: > 1
MBC [2]: > 1000 mg/L
MIC [2]: 1000 mg/L (≈ 3.05 mM)
MIC [3]: > 1000 mg/L
MIC [4]: > 1000 mg/L
MIC ([1]; Salmonella enterica): > 1000 mg/L
MBC/MIC [5]: > 1
MBC [5]: > 1000 mg/L
MIC [5]: 1000 mg/L (≈ 3.05 mM)
MIC [6]: > 1000 mg/L
MBC/MIC [7]: 2
MBC ([7]; ATCC12228): 1000 mg/L (≈ 3.05 mM)
MIC [7]: 500 mg/L (≈ 1.52 mM)
MIC [8]: > 1000 mg/L
MBC/MIC [9]: > 1
MBC ([9]; ATCC10876): > 1000 mg/L
MIC [9]: 1000 mg/L (≈ 3.05 mM)
MIC [10]: > 1000 mg/L
MIC [11]: > 1000 mg/L
MIC [12]: > 1000 mg/L
MIC [13]: > 1000 mg/L
MFC/MIC [14]: > 1
MFC ([14]; ATCC10231, read-out: MFC): > 1000 mg/L
MIC [14]: 1000 mg/L (≈ 3.05 mM)
MFC/MIC [15]: > 2
MFC ([15]; ATCC2091, read-out: MFC): > 1000 mg/L
MIC [15]: 500 mg/L (≈ 1.52 mM)
MIC [16]: > 1000 mg/L
MIC [17]: > 1000 mg/L
MIC [18]: > 1000 mg/L
melting point: 246 °C

Cc1ccc(/C=N/NC(=O)c2ccc(O)cc2O)cc1 [Compound 3, 2,4-dihydroxy-N-[(4-methylphenyl)methylidene]benzohydrazide]
MBC/MIC [2]: > 2
MBC [2]: > 1000 mg/L
MIC [2]: 500 mg/L (≈ 1.85 mM)
MIC [3]: > 1000 mg/L
MIC [4]: > 1000 mg/L
MIC ([1]; Salmonella enterica): > 1000 mg/L
MIC [5]: > 1000 mg/L
MIC [6]: > 1000 mg/L
MIC [7]: > 1000 mg/L
MIC [8]: > 1000 mg/L
MIC [9]: > 1000 mg/L
MIC [10]: > 1000 mg/L
MIC [11]: > 1000 mg/L
MIC [12]: > 1000 mg/L
MIC [13]: > 1000 mg/L
MIC [14]: > 1000 mg/L
MIC [15]: > 1000 mg/L
MIC [16]: > 1000 mg/L
MIC [17]: > 1000 mg/L
MIC [18]: > 1000 mg/L
melting point: 248 °C
